Columns and labels:
[1] = biological target: T1, human dopamine (DA) transporter (DAT) (Homo sapiens, UniProt Q01959); assay: Dopamine transporter binding assay ([3H]GBR 12935, CEREP); settings: HCl salts
T1 construct: host or cells: CHO cells, cell membrane homogenates
Protocol: Transporter Binding and Cellular Uptake. All described monoamine transporter binding studies as well as cellular uptake assays were performed in duplicate by CEREP (Celle l'Evescault, France) and are described below. Further details of all assays performed may be accessed at the CEREP web site (world-wide-web at cerep.com). Cellular-based assays were conducted to provide complementary in vitro functional measures to complement the standard transporter assays as well as to provide direct comparisons of the homologs IPH with MPH with regard to DA, NE, and 5-HT uptake in synaptosomal preparations. […]
Dopamine Transporter Binding Assay. Evaluation of the affinity of both compounds for the human dopamine (DA) transporter (DAT) in transfected Chinese Hamster Ovary (CHO) cells was determined in a validated radioligand binding assay. […] Nonspecific binding was determined in the presence of 10 μM N-[1-(Benzo[b]thien-2-yl-cyclohexyl)] piperidine (BTCP). […] The filters were then dried and measured for radioactivity with a scintillation counter (TopCount, Packard) using a liquid scintillation cocktail (Microscint 0, Packard). The results of DAT binding experiments as well as the other transporter assays described in the following sections were expressed as a percent inhibition of the control radioligand specific binding. […]

[2] = tested on: DA uptake, synaptosomes prepared from the rat striatum; assay: Dopamine uptake into synaptosomes; type: cell-based
Protocol: Transporter Binding and Cellular Uptake. All described monoamine transporter binding studies as well as cellular uptake assays were performed in duplicate by CEREP (Celle l'Evescault, France) and are described below. Further details of all assays performed may be accessed at the CEREP web site (world-wide-web at cerep.com). Cellular-based assays were conducted to provide complementary in vitro functional measures to complement the standard transporter assays as well as to provide direct comparisons of the homologs IPH with MPH with regard to DA, NE, and 5-HT uptake in synaptosomal preparations.
Dopamine Uptake. The evaluation of the effects of the two compounds on DA uptake again utilized synaptosomes but this time prepared from the rat striatum. […] After incubation, the samples were filtered, counted, and the results expressed as a percent inhibition of the control uptake of [^3H]dopamine by scintillation count. The standard inhibitory reference compound was GBR12909, which was tested in each experiment at several concentrations to obtain an inhibition curve from which its IC50 value was calculated.

[3] = biological target: T2, hCES1 (Homo sapiens, UniProt P23141); assay: Transesterification potential in the presence of ethanol, s9 fraction of hCES1-transfected cells; settings: for effect of ethanol on formation of the hydrolytic product RA: hCES1 s9; for EPH formation with ethanol when hCES1 was not present: incubation with ethanol, no hCES1
T2 sequence (P23141 18-567): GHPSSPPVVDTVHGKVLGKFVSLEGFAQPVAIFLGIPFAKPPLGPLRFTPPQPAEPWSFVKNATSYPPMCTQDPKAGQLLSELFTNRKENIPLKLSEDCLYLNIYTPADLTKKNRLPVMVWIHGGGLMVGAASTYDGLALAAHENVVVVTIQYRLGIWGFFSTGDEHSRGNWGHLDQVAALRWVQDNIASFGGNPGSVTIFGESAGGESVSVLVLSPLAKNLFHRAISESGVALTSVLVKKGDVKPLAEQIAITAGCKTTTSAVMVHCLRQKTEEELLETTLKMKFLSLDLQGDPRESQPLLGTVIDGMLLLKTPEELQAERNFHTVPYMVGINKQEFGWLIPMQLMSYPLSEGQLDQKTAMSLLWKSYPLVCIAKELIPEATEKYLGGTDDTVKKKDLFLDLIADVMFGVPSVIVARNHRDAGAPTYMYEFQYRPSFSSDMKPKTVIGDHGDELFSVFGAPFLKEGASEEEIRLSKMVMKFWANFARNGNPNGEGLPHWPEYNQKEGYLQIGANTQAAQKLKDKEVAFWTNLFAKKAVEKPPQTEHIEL
Protocol: FIG. 3—Transesterification potential of isopropylphenidate (IPH) versus methylphenidate (MPH) by s9 fractions of CES1 transfected cells in the presence of ethanol. MPH (1 mM) or IPH (1 mM) was incubated with s9 fractions of hCES1 overexpressing cells (2 mg/ml) in the presence or absence of ethanol (10 mM) at 37° C. for 30 min. The transesterification product EPH and hydrolytic metabolite RA were analyzed utilizing established HPLC assays. […] Data are expressed as mean±SEM of three independent experiments.
An In Vitro Investigation of the Transesterification Potential of Isopropylphenidate versus Methylphenidate in the Presence of Ethanol. The s9 fraction of hCES1-transfected cells, d1-MPH), dl-IPH, and ethanol working solution were prepared in DPBS containing 20 mM HEPES, pH7.4. The reaction was initiated by mixing 200 μl of s9 fraction, 100 μl of substrates (MPH or IPH) and 100 μl of ethanol. The final concentrations of s9 fraction protein, MPH, IPH, and ethanol were 2 mg/ml, 1 mM, 1 mM, and 10 mM, respectively. After incubation at 37° C. for 1 h, the reaction was terminated by adding a four-fold concentration of ice-cold methanol. The samples were then centrifuged at 16,000 g for 5 min, and the resulting supernatant was subjected to HPLC analysis to assess each for the formation and/or concentration of the hydrolytic product of both MPH and IPH, and common metabolite RA. Additionally, the samples were assayed for the presence of the transesterification metabolite ethylphenidate (EPH). Further, the s9 fraction prepared from the vector-transfected cells was included in this study as a control for any non-enzymatic hydrolysis which might occur. The hCES1 mediated MPH and IPH hydrolysis was estimated by deducting the amounts of RA produced in the vector s9 samples from the RA formation observed in the hCES1 s9 samples.

T1 sequence (Q01959 whole entry): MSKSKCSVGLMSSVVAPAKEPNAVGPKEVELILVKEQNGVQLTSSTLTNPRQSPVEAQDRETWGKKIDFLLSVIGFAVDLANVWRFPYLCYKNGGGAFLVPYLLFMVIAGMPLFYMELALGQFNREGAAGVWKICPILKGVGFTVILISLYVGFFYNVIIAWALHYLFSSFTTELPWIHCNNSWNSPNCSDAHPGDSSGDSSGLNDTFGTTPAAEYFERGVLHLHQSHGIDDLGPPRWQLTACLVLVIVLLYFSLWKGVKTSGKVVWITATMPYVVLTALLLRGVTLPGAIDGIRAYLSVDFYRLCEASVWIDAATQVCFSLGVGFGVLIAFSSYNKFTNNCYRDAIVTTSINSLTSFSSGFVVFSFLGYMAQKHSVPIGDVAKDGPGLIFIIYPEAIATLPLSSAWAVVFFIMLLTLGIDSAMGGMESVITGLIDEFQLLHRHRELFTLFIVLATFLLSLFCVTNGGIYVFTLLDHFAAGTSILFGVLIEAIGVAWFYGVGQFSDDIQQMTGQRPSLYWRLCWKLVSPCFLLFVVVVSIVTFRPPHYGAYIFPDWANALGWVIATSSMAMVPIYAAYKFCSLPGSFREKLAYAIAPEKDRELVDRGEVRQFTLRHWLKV

`CC(C)OC(=O)C(c1ccccc1)C1CCCCN1` (racemic) [IPH, dl-threo-α-phenyl-2-piperidineacetic acid isopropyl ester] was tested, and the “% inhibition of control specific binding, DAT (h)” value ([1]; 10 μM, ligand [3H]GBR-12935, transfected CHO cells) was 97%, the “% inhibition of control specific binding; [3H]DA incorporation into synaptosomes” value ([2]; 10 μM, rat striatum synaptosomes) was 96% and the “velocity of hCES1-mediated transesterification to EPH” value ([3]; 1 mM substrate, 10 mM ethanol, 2 mg/ml s9 protein, 37° C.) was 47.5±3.3 pmole/min/mg protein. The “effect of ethanol on formation of the hydrolytic product RA” value ([3]; 10 mM ethanol) was “significantly decreased” and the “EPH formation with ethanol when hCES1 was not present” value [3] was “no EPH formation was observed”.

With `COC(=O)C(c1ccccc1)C1CCCCN1` (racemic) [MPH, dl-threo-methylphenidate, reference compound] the inhibition at 10 µM ([1]; ligand [3H]GBR-12935, transfected CHO cells, read-out: % inhibition of control specific binding, DAT (h)) was 101%, the inhibition at 10 µM ([2]; Rattus norvegicus, read-out: % inhibition of control specific binding, [3H]DA incorporation into synaptosomes) was 90% and the “effect of ethanol on formation of the hydrolytic product RA” value ([3]; 10 mM ethanol) was “significantly decreased”. The “EPH formation with ethanol when hCES1 was not present” value [3] was “no EPH formation was observed”.

Source: patent US20120245201A1, “Isopropylphenidate for Treatment of Attention-Deficit/Hyperactivity Disorder and Fatigue-Related Disorders and Conditions” (priority 2009, published 2012)
